Marks after values point to notes of the source that are not given here.
Key:
[1] = system: Cytokeratin 2E; assay: Gene array qPCR, human dermal equivalent: Cytokeratin 2E; assay type: cell-based; settings: 1.0% 4AR in DMSO, human skin equivalent, 24 hours, mRNA by qPCR
Description: (§1) In this gene array experiment, we examined the ability of 4AR at a one percent concentration in DMSO (where 100% DMSO served as the vehicle) to either stimulate or inhibit several important genes and quantify directly the transcribed messenger RNA (mRNA) levels by Taqman real time PCR. The test material was placed onto a biological barrier (human dermal equivalent) using a MatTek “ready-to-use” in vitro organotypic tissue equivalent, based on well-documented and validated protocols, using the EpiDerm™ Model EPI-200 Kit. The MatTek kits uses normal (non-transformed) donated human cells as the basis for all of its tissue equivalents. These cells are grown (cultured) in standard Millipore Millicell™ Single Well Tissue Culture Plate Inserts at the air liquid interface or ALI. Apical (top) surface of tissue is exposed to air allowing for direct application of test articles. […] Once the 4 AR test material penetrated the human skin barrier equivalent the gene chip was activated and subsequently mRNA levels were quantified and the results represent stimulation or inhibition of a specific gene.
(§2) To investigate the effects of 4AR on the expression of genes associated with the extracellular matrix (ECM) of the skin, qPCR experiments were conducted using the tissue cultures (model system described above) with subsequent quantification of mRNA levels from […] tissue/cells. […]

[2] = system: IL-8 (interleukin 8); assay: Gene array qPCR, human dermal equivalent: IL-8; assay type: cell-based; settings: 1.0% 4AR in DMSO, human skin equivalent, 24 hours, mRNA by qPCR
Description: as §1, §2

[3] = system: IL-6 (interleukin 6); assay: Gene array qPCR, human dermal equivalent: IL-6; assay type: cell-based; settings: 1.0% 4AR in DMSO, human skin equivalent, 24 hours, mRNA by qPCR
Description: as §1, §2

[4] = system: Metallothionein 1; assay: Gene array qPCR, human dermal equivalent: Metallothionein 1; assay type: cell-based; settings: 1.0% 4AR in DMSO, human skin equivalent, 24 hours, mRNA by qPCR
Description: as §1, §2

[5] = system: Tissue inhibitor of metalloproteinases 1; assay: Gene array qPCR, human dermal equivalent: TIMP1; assay type: cell-based; settings: 1.0% 4AR in DMSO, human skin equivalent, 24 hours, mRNA by qPCR
Description: as §1, §2

[6] = system: lysyl oxidase (LOX); assay: Gene array qPCR, human dermal equivalent: LOX; assay type: cell-based; settings: 1.0% 4AR in DMSO, human skin equivalent, 24 hours, mRNA by qPCR
Description: as §1, §2

[7] = system: Nerve growth factor; assay: Gene array qPCR, human dermal equivalent: Nerve growth factor; assay type: cell-based; settings: 1.0% 4AR in DMSO, human skin equivalent, 24 hours, mRNA by qPCR
Description: as §1, §2

[8] = system: Superoxide dismutase 1, soluble; assay: Gene array qPCR, human dermal equivalent: SOD1; assay type: cell-based; settings: 1.0% 4AR in DMSO, human skin equivalent, 24 hours, mRNA by qPCR
Description: as §1, §2

[9] = system: Type IV collagen alpha 1; assay: Gene array qPCR, human dermal equivalent: Type IV collagen alpha 1; assay type: cell-based; settings: 1.0% 4AR in DMSO, human skin equivalent, 24 hours, mRNA by qPCR
Description: as §1, §2

[10] = system: PCNA (Proliferating Cell Nuclear Antigen); assay: Gene array qPCR, human dermal equivalent: PCNA; assay type: cell-based; settings: 1.0% 4AR in DMSO, human skin equivalent, 24 hours, mRNA by qPCR
Description: as §1, §2

[11] = biological target: T1, prostate type I 5α-reductase enzyme (Rattus norvegicus, UniProt P24008); assay: Prostate 5α-reductase enzyme activity of treated rats; assay type: in vivo; settings: DMSO controls 8.7 + 0.6
T1 construct: from tissue; host or cells: prostate of adult male Long-Evans rats dosed with 4AR for 21 days
T1 sequence (P24008 1-259): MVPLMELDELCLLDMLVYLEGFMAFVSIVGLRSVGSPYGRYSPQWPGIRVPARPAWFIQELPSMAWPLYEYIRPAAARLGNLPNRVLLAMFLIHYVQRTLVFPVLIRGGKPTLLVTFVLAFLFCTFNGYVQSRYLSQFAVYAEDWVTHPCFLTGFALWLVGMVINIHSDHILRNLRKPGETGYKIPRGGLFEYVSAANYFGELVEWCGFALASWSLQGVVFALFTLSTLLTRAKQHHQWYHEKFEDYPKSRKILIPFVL
Method: Adult male Long-Evans rats were administered 4AR for 21 days. DMSO served as the control and 4AR was dissolved into DMSO at the following concentrations: 5.0 mg/kg body weight, 20.0 mg/kg body weight and 90.0 mg/kg body weight (n=12 per group).
Since, the 5a-reductase enzyme (which converts testosterone to 5a-dihydrotestosterone) is important in prostate health in reference to benign prostatic hyperplasia (BPH) and the treatment and prevention of prostate cancer, we determined if prostate type I 5α-reductase enzyme activity was impacted by these treatments by quantifying the enzymatic rates of each animal as described above (in this study there were approximately 10 animals per treatment group).

[12] = system: Tissue Inhibitor of metalloproteinases 2 (TIMP2); assay: Gene array qPCR, human dermal equivalent: TIMP2; assay type: cell-based; settings: 1.0% 4AR in DMSO, human skin equivalent, 24 hours, mRNA by qPCR
Description: as §1, §2

[13] = system: TGF (transforming growth factor) beta; assay: Gene array qPCR, human dermal equivalent: TGF beta; assay type: cell-based; settings: 1.0% 4AR in DMSO, human skin equivalent, 24 hours, mRNA by qPCR
Description: as §1, §2

[14] = system: Desmocollin 1; assay: Gene array qPCR, human dermal equivalent: Desmocollin 1; assay type: cell-based; settings: 1.0% 4AR in DMSO, human skin equivalent, 24 hours, mRNA by qPCR
Description: as §1, §2

[15] = system: SIRT1 (Sirtuin 1); assay: Gene array qPCR, human dermal equivalent: SIRT1; assay type: cell-based; settings: 1.0% 4AR in DMSO, human skin equivalent, 24 hours
Description: as §1, §2

[16] = system: Protein Kinase C alpha; assay: Gene array qPCR, human dermal equivalent: Protein Kinase C alpha; assay type: cell-based; settings: 1.0% 4AR in DMSO, human skin equivalent, 24 hours, mRNA by qPCR
Description: as §1, §2

[17] = system: Procollagen III (alpha 1); assay: Gene array qPCR, human dermal equivalent: Procollagen III; assay type: cell-based; settings: 1.0% 4AR in DMSO, human skin equivalent, 24 hours, mRNA by qPCR
Description: as §1, §2

[18] = system: Laminin 1B; assay: Gene array qPCR, human dermal equivalent: Laminin 1B; assay type: cell-based; settings: 1.0% 4AR in DMSO, human skin equivalent, 24 hours, mRNA by qPCR
Description: as §1, §2

[19] = system: S100 Calcium binding protein A9; assay: Gene array qPCR, human dermal equivalent: S100 A9; assay type: cell-based; settings: 1.0% 4AR in DMSO, human skin equivalent, 24 hours, mRNA by qPCR
Description: as §1, §2

[20] = system: HBEGF (Heparin-binding EGF-like growth factor); assay: Gene array qPCR, human dermal equivalent: HBEGF; assay type: cell-based; settings: 1.0% 4AR in DMSO, human skin equivalent, 24 hours, mRNA by qPCR
Description: as §1, §2

[21] = system: JunD; assay: Gene array qPCR, human dermal equivalent: JunD; assay type: cell-based; settings: 1.0% 4AR in DMSO, human skin equivalent, 24 hours, mRNA by qPCR
Description: as §1, §2

[22] = system: TGF (transforming growth factor) beta type II receptor; assay: Gene array qPCR, human dermal equivalent: TGF beta type II receptor; assay type: cell-based; settings: 1.0% 4AR in DMSO, human skin equivalent, 24 hours, mRNA by qPCR
Description: as §1, §2

CC(=O)Oc1ccc(C=Cc2cc(O)cc(O)c2)cc1 [4AR, 3,5-dihydroxy-4′-acetoxy stilbene]
CK 2E decreased by [1]: 3.5-fold with | IL-8 decreased by [2]: 3.8-fold | IL-6 decreased by [3]: 35.2-fold | Metallothionein 1 increased by [4]: 64.0-fold | Tissue inhibitor of metalloproteinases 1 increased by [5]: 2.5-fold | Lysyl oxidase increased by [6]: 1.9-fold | Nerve growth factor increased by [7]: 6.7-fold | Superoxide dismutase 1, soluble increased by [8]: 1.6-fold | Type IV collagen alpha 1 increased by [9]: 1.7-fold | PCNA increased by [10]: 5.4-fold with | 5α-reductase enzyme activity ([11]; 5 mg/kg body weight): 4.6 + 0.4* pmol/hour incubation/mg of protein | 5α-reductase enzyme activity ([11]; 20 mg/kg body weight): 3.3 + 0.3* pmol/hour incubation/mg of protein | 5α-reductase enzyme activity ([11]; 90 mg/kg body weight): 2.0 + 0.2* pmol/hour incubation/mg of protein | TIMP2 increased by [12]: 1.3-fold | TGF beta increased by [13]: 2.0-fold | Desmocollin 1 decreased by [14]: by 2.4-fold | SIRT1 mRNA expression increased by [15]: 3.3-fold | Protein Kinase C alpha increased by [16]: 2.7-fold | Procollagen III increased by [17]: by 2.2-fold | Laminin 1B increased by [18]: 1.4-fold with | S100 Calcium binding protein A9 decreased by [19]: 1.6-fold | HBEGF increased by [20]: 1.9-fold | JunD increased by [21]: 2.1-fold | TGF beta type II receptor increased by [22]: 1.7-fold

Source: patent US20130123357A1, “Methods for Providing Enhanced Resveratrol Activity Using 4-Acetoxy-Resveratrol” (BRIGHAM YOUNG UNIVERSITY, priority 2010, published 2013)
